{"source": "patent US20140073634A1", "about": "(Institute For Applied Cancer Science/The University of …, priority 2012, published 2014)", "system": "293T-HRE-GFP-luc cells", "assay": "Cell-based reporter assay for IC50 determinations (HRE-luciferase, hypoxia)", "conditions": "6 h, 6 hrs hypoxia (1% O2), luminescence", "outline": "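293T-HRE-GFP-luc cells were pre-incubated with serially diluted compounds for 30 min under normoxia, then held 6 hrs in hypoxia (1% O2, 37° C). HRE-driven luciferase read by Steadylite Plus luminescence; IC50 from four-parameter logistic fit.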", "data": [{"smiles": "CS(=O)(=O)CCCOc1cccc(Cn2cc(-c3noc(-c4ccc(OC(F)F)cc4)n3)ccc2=O)c1", "note": "[Example 207]", "values": [{"measurement": "IC50", "result": "< 100", "unit": "nM"}]}, {"smiles": "COCCOc1cccc(Cn2cc(-c3noc(-c4ccc(C(C)=O)cc4)n3)ccc2=O)c1", "note": "[Example 208, 5-[5-(4-acetylphenyl)-1,2,4-oxadiazol-3-yl]-1-{[3-(2-methoxyethoxy)phenyl]methyl}-1,2-dihydropyridin-2-one]", "values": [{"measurement": "IC50", "result": "< 100", "unit": "nM"}]}, {"smiles": "COCCOc1cccc(Cn2cc(-c3noc(-c4ccc(C5=CCSCC5)cc4)n3)ccc2=O)c1", "note": "[Example 209, 5-{5-[4-(3,6-dihydro-2H-thiopyran-4-yl)phenyl]-1,2,4-oxadiazol-3-yl}-1-{[3-(2-methoxyethoxy)phenyl]methyl}-1,2-dihydropyridin-2-one]", "values": [{"measurement": "IC50", "result": "< 100", "unit": "nM"}]}, {"smiles": "CC(C)c1ccc(-c2nc(-c3ccc(=O)n(Cc4cccc(OCCCS(C)(=O)=O)c4)c3)no2)cc1", "note": "[Example 210, 1-{[3-(3-methanesulfonylpropoxy)phenyl]methyl}-5-{5-[4-(propan-2-yl)phenyl]-1,2,4-oxadiazol-3-yl}-1,2-dihydropyridin-2-one]", "values": [{"measurement": "IC50", "result": "< 100", "unit": "nM"}]}, {"smiles": "CS(=O)(=O)CCCOc1cccc(Cn2cc(-c3noc(-c4ccc(S(=O)(=O)C(F)(F)F)cc4)n3)ccc2=O)c1", "note": "[Example 211, 1-{[3-(3-methanesulfonylpropoxy)phenyl]methyl}-5-[5-(4-trifluoromethanesulfonylphenyl)-1,2,4-oxadiazol-3-yl]-1,2-dihydropyridin-2-one]", "values": [{"measurement": "IC50", "result": "< 100", "unit": "nM"}]}, {"smiles": "COCCOc1cccc(Cn2cc(-c3noc(-c4ccc(C5=CCOCC5)cc4)n3)ccc2=O)c1", "note": "[Example 212, 5-{5-[4-(3,6-dihydro-2H-pyran-4-yl)phenyl]-1,2,4-oxadiazol-3-yl}-1-{[3-(2-methoxyethoxy)phenyl]methyl}-1,2-dihydropyridin-2-one]", "values": [{"measurement": "IC50", "result": "< 100", "unit": "nM"}]}, {"smiles": "CC(C)(O)c1cccc(Cn2cc(-c3noc(-c4ccc(S(=O)(=O)C(F)(F)F)cc4)n3)ccc2=O)c1", "note": "[Example 213, 1-{[3-(2-hydroxypropan-2-yl)phenyl]methyl}-5-[5-(4-trifluoromethanesulfonylphenyl)-1,2,4-oxadiazol-3-yl]-1,2-dihydropyridin-2-one]", "values": [{"measurement": "IC50", "result": "< 100", "unit": "nM"}]}, {"smiles": "CC(C)(O)c1cccc(Cn2cc(-c3noc(-c4ccc(C5CCOCC5)cc4)n3)ccc2=O)c1", "note": "[Example 214, 1-{[3-(2-hydroxypropan-2-yl)phenyl]methyl}-5-{5-[4-(oxan-4-yl)phenyl]-1,2,4-oxadiazol-3-yl}-1,2-dihydropyridin-2-one]", "values": [{"measurement": "IC50", "result": "< 100", "unit": "nM"}]}, {"smiles": "COCCOc1cccc(Cn2cc(-c3nc(-c4ccc(C5(O)CCOCC5)cc4)no3)ccc2=O)c1", "note": "[Example 215, 5-{3-[4-(4-hydroxyoxan-4-yl)phenyl]-1,2,4-oxadiazol-5-yl}-1-{[3-(2-methoxyethoxy)phenyl]methyl}-1,2-dihydropyridin-2-one]", "values": [{"measurement": "IC50", "result": "100 to 1000", "unit": "nM"}]}, {"smiles": "COCCOc1cccc(Cn2cc(-c3noc(-c4ccc(S(=O)(=O)N(C)C)cc4)n3)ccc2=O)c1", "note": "[Example 216, 4-[3-(1-{[3-(2-methoxyethoxy)phenyl]methyl}-6-oxo-1,6-dihydropyridin-3-yl)-1,2,4-oxadiazol-5-yl]-N,N-dimethylbenzene-1-sulfonamide]", "values": [{"measurement": "IC50", "result": "100 to 1000", "unit": "nM"}]}, {"smiles": "COCCOc1cccc(Cn2cc(-c3noc(-c4ccc(S(=O)(=O)NC(C)C)cc4)n3)ccc2=O)c1", "note": "[Example 217, 4-[3-(1-{[3-(2-methoxyethoxy)phenyl]methyl}-6-oxo-1,6-dihydropyridin-3-yl)-1,2,4-oxadiazol-5-yl}-N-(propan-2-yl)benzene-1-sulfonamide]", "values": [{"measurement": "IC50", "result": "100 to 1000", "unit": "nM"}]}, {"smiles": "COCCOc1cccc(Cn2cc(-c3noc(-c4ccc(C(=O)N(C)C)cc4)n3)ccc2=O)c1", "note": "[Example 218, 4-[3-(1-{[3-(2-methoxyethoxy)phenyl]methyl}-6-oxo-1,6-dihydropyridin-3-yl)-1,2,4-oxadiazol-5-yl]-N,N-dimethylbenzamide]", "values": [{"measurement": "IC50", "result": "100 to 1000", "unit": "nM"}]}, {"smiles": "COCCOc1cccc(Cn2cc(-c3noc(-c4ccc(C(=O)N5CCCC5)cc4)n3)ccc2=O)c1", "note": "[Example 219, 1-{[3-(2-methoxyethoxy)phenyl]methyl}-5-{5-[4-(pyrrolidine-1-carbonyl)phenyl]-1,2,4-oxadiazol-3-yl}-1,2-dihydropyridin-2-one]", "values": [{"measurement": "IC50", "result": "100 to 1000", "unit": "nM"}]}, {"smiles": "COCCOc1cccc(Cn2cc(-c3noc(-c4ccc(CO)cc4)n3)ccc2=O)c1", "note": "[Example 220, 5-{5-[4-(hydroxymethyl)phenyl]-1,2,4-oxadiazol-3-yl}-1-{[3-(2-methoxyethoxy)phenyl]methyl}-1,2-dihydropyridin-2-one]", "values": [{"measurement": "IC50", "result": "100 to 1000", "unit": "nM"}]}, {"smiles": "COCCOc1cccc(Cn2cc(-c3noc(-c4ccc(S(=O)(=O)C(F)F)cc4)n3)ccc2=O)c1", "note": "[Example 221, 5-[5-(4-difluoromethanesulfonylphenyl)-1,2,4-oxadiazol-3-yl]-1-{[3-(2-methoxyethoxy)phenyl]methyl}-1,2-dihydropyridin-2-one]", "values": [{"measurement": "IC50", "result": "< 100", "unit": "nM"}]}, {"smiles": "COCCOc1cccc(Cn2cc(-c3noc(-c4ccc(C)c(C)c4)n3)ccc2=O)c1", "note": "[Example 222, 5-[5-(3,4-dimethylphenyl)-1,2,4-oxadiazol-3-yl]-1-{[3-(2-methoxyethoxy)phenyl]methyl}-1,2-dihydropyridin-2-one]", "values": [{"measurement": "IC50", "result": "100 to 1000", "unit": "nM"}]}, {"smiles": "COCCOc1cccc(Cn2cc(-c3noc(-c4ccc5c(c4)OCO5)n3)ccc2=O)c1", "note": "[Example 223, 5-[5-(2H-1,3-benzodioxol-5-yl)-1,2,4-oxadiazol-3-yl]-1-{[3-(2-methoxyethoxy)phenyl]methyl}-1,2-dihydropyridin-2-one]", "values": [{"measurement": "IC50", "result": "100 to 1000", "unit": "nM"}]}, {"smiles": "COCCOc1cccc(Cn2cc(-c3noc(-c4ccc5c(c4)OC(F)(F)O5)n3)ccc2=O)c1", "note": "[Example 224, 5-[5-(2,2-difluoro-2H-1,3-benzodioxol-5-yl)-1,2,4-oxadiazol-3-yl]-1-{[3-(2-methoxyethoxy)phenyl]methyl}-1,2-dihydropyridin-2-one]", "values": [{"measurement": "IC50", "result": "< 100", "unit": "nM"}]}, {"smiles": "COCCOc1cccc(Cn2cc(-c3noc(-c4ccc5[nH]ccc5c4)n3)ccc2=O)c1", "note": "[Example 225, 5-[5-(1H-indol-5-yl)-1,2,4-oxadiazol-3-yl]-1-{[3-(2-methoxyethoxy)phenyl]methyl}-1,2-dihydropyridin-2-one]", "values": [{"measurement": "IC50", "result": "100 to 1000", "unit": "nM"}]}, {"smiles": "COCCOc1cccc(Cn2cc(-c3noc(-c4ccc(NC(C)=O)cc4)n3)ccc2=O)c1", "note": "[Example 226, N-{4-[3-(1-{[3-(2-methoxyethoxy)phenyl]methyl}-6-oxo-1,6-dihydropyridin-3-yl)-1,2,4-oxadiazol-5-yl]phenyl}acetamide]", "values": [{"measurement": "IC50", "result": "100 to 1000", "unit": "nM"}]}, {"smiles": "COCCOc1cccc(Cn2cc(-c3noc(-c4ccc(COC)cc4)n3)ccc2=O)c1", "note": "[Example 227, 1-{[3-(2-methoxyethoxy)phenyl]methyl}-5-{5-[4-(methoxymethyl)phenyl]-1,2,4-oxadiazol-3-yl}-1,2-dihydropyridin-2-one]", "values": [{"measurement": "IC50", "result": "< 100", "unit": "nM"}]}, {"smiles": "COCCOc1cccc(Cn2cc(-c3noc(-c4ccc5c(c4)CCO5)n3)ccc2=O)c1", "note": "[Example 228, 5-[5-(2,3-dihydro-1-benzofuran-5-yl)-1,2,4-oxadiazol-3-yl]-1-{[3-(2-methoxyethoxy)phenyl]methyl}-1,2-dihydropyridin-2-one]", "values": [{"measurement": "IC50", "result": "100 to 1000", "unit": "nM"}]}, {"smiles": "COCCOc1cccc(Cn2cc(-c3noc(-c4ccc(N5CCCC5)cc4)n3)ccc2=O)c1", "note": "[Example 229, 1-{[3-(2-methoxyethoxy)phenyl]methyl}-5-{5-[4-(pyrrolidin-1-yl)phenyl]-1,2,4-oxadiazol-3-yl}-1,2-dihydropyridin-2-one]", "values": [{"measurement": "IC50", "result": "< 100", "unit": "nM"}]}, {"smiles": "COCCOc1cccc(Cn2cc(-c3noc(-c4ccc(C(C)(C)C)cc4)n3)ccc2=O)c1", "note": "[Example 230, 5-[5-(4-tert-butylphenyl)-1,2,4-oxadiazol-3-yl]-1-{[3-(2-methoxyethoxy)phenyl]methyl}-1,2-dihydropyridin-2-one]", "values": [{"measurement": "IC50", "result": "100 to 1000", "unit": "nM"}]}, {"smiles": "COCCOc1cccc(Cn2cc(-c3noc(-c4cnc(OC)nc4)n3)ccc2=O)c1", "note": "[Example 231, 1-{[3-(2-methoxyethoxy)phenyl]methyl}-5-[5-(2-methoxypyrimidin-5-yl)-1,2,4-oxadiazol-3-yl]-1,2-dihydropyridin-2-one]", "values": [{"measurement": "IC50", "result": "100 to 1000", "unit": "nM"}]}, {"smiles": "COCCOc1cccc(Cn2cc(-c3noc(-c4cnc(N(C)C)nc4)n3)ccc2=O)c1", "note": "[Example 232, 5-{5-[2-(dimethylamino)pyrimidin-5-yl]-1,2,4-oxadiazol-3-yl}-1-{[3-(2-methoxyethoxy)phenyl]methyl}-1,2-dihydropyridin-2-one]", "values": [{"measurement": "IC50", "result": "< 100", "unit": "nM"}]}, {"smiles": "COCCOc1cccc(Cn2cc(-c3noc(-c4ccc(S(=O)(=O)CC(C)C)cc4)n3)ccc2=O)c1", "note": "[Example 233, 1-{[3-(2-methoxyethoxy)phenyl]methyl}-5-{5-[4-(2-methylpropanesulfonyl)phenyl]-1,2,4-oxadiazol-3-yl}-1,2-dihydropyridin-2-one]", "values": [{"measurement": "IC50", "result": "< 100", "unit": "nM"}]}, {"smiles": "CCCNS(=O)(=O)c1ccc(-c2nc(-c3ccc(=O)n(Cc4cccc(OCCOC)c4)c3)no2)cc1", "note": "[Example 234, 4-[3-(1-{[3-(2-methoxyethoxy)phenyl]methyl}-6-oxo-1,6-dihydroylpyridin-3-yl)-1,2,4-oxadiazol-5-yl]-N-propylbenzene-1-sulfonamide]", "values": [{"measurement": "IC50", "result": "100 to 1000", "unit": "nM"}]}, {"smiles": "COCCOc1cccc(Cn2cc(-c3noc(-c4ccc(S(=O)(=O)C(C)C)cc4)n3)ccc2=O)c1", "note": "[Example 235, 1-{[3-(2-methoxyethoxy)phenyl]methyl}-5-{5-[4-(propane-2-sulfonyl)phenyl]-1,2,4-oxadiazol-3-yl}-1,2-dihydropyridin-2-one]", "values": [{"measurement": "IC50", "result": "100 to 1000", "unit": "nM"}]}, {"smiles": "COCCOc1cccc(Cn2cc(-c3noc(-c4ccc(CC(C)C)cc4)n3)ccc2=O)c1", "note": "[Example 236, 1-{[3-(2-methoxyethoxy)phenyl]methyl}-5-{5-[4-(2-methylpropyl)phenyl]-1,2,4-oxadiazol-3-yl}-1,2-dihydropyridin-2-one]", "values": [{"measurement": "IC50", "result": "< 100", "unit": "nM"}]}, {"smiles": "COCCOc1cccc(Cn2cc(-c3noc(-c4ccc(S(=O)(=O)CCOC)cc4)n3)ccc2=O)c1", "note": "[Example 237, 5-{5-[4-(2-methoxyethanesulfonyl)phenyl]-1,2,4-oxadiazol-3-yl}-1-{[3-(2-methoxyethoxy)phenyl]methyl}-1,2-dihydropyridin-2-one]", "values": [{"measurement": "IC50", "result": "100 to 1000", "unit": "nM"}]}, {"smiles": "COCCOc1cccc(Cn2cc(-c3noc(-c4cnc(N5CCCC5)nc4)n3)ccc2=O)c1", "note": "[Example 238, 1-{[3-(2-methoxyethoxy)phenyl]methyl}-5-{5-[2-(pyrrolidin-1-yl)pyrimidin-5-yl]-1,2,4-oxadiazol-3-yl}-1,2-dihydropyridin-2-one]", "values": [{"measurement": "IC50", "result": "< 100", "unit": "nM"}]}]}
